Consider four compounds from ChEMBL document CHEMBL1201862, “PubChem BioAssay data set” (2004).

The structures appear in SMILES notation. Activity calls are given as the source filed them. Where only a bound is given, the exact number is not on record here.

One test deals with BJ. Briefly: BJ-TERT-LT-ST fibroblast viability loss – cell-based, RAS-independent, luminescence, dose response (AID 1935).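 Also: BJ fibroblasts immortalized with TERT plus LT and ST oncogenes.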 The format is functional. Particulars: Homo sapiens.
Test [1] can be described thus: inhibition of ARNT PAS-B/TACC3 complex formation – biochemical, AlphaScreen, cherry-picked samples, confirmation (AID 651703).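 Also: His-tagged ARNT PAS-B domain paired with GST-TACC3 E629A dimer coactivator fragment; potency of inhibitors that break up the complex and lower AlphaScreen signal.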 The format is functional, Homo sapiens. (In general: Alpha assays give light when donor and acceptor beads are brought close together.)
Test [2] concerns the target T1, Histone-lysine N-methyltransferase NSD2 (Homo sapiens, UniProt O96028).
T1 sequence (O96028 whole entry): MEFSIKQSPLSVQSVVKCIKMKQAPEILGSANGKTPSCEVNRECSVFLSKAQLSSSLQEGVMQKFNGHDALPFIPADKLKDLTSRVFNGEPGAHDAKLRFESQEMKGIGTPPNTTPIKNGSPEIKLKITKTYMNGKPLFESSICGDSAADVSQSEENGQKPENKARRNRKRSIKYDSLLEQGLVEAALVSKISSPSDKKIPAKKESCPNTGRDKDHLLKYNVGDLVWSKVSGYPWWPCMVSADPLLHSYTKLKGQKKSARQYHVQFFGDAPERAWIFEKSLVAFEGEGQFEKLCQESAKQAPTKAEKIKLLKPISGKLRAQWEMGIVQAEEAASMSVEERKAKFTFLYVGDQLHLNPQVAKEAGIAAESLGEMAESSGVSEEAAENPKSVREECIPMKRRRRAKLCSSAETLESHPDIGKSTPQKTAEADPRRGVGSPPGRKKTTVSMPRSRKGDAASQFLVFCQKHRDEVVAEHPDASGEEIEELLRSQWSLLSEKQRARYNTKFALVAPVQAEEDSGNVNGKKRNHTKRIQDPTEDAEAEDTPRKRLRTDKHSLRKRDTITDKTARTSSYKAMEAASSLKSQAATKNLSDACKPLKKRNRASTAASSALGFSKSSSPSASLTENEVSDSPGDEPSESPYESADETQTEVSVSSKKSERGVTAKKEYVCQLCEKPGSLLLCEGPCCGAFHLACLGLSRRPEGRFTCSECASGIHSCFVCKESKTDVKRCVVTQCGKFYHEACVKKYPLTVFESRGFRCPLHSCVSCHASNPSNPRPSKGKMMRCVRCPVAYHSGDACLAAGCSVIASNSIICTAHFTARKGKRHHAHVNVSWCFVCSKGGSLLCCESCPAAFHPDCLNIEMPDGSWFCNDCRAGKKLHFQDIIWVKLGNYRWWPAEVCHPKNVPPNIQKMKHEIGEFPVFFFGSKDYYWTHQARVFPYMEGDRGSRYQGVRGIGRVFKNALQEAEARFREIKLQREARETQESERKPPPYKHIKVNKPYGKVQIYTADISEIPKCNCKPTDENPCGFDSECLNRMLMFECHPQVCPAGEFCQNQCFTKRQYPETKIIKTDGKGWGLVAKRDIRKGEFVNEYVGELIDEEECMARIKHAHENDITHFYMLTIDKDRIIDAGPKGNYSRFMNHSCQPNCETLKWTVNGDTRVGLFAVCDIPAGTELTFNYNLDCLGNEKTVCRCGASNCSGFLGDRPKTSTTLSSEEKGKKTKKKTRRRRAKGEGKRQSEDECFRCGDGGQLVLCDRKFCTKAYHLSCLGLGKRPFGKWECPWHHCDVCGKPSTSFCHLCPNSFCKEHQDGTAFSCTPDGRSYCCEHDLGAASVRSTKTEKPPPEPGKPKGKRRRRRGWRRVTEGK
The format is biochemical.

For another test, the system named is Vero. Briefly: viability of Vero cells under compound – cytotoxicity control for flavivirus capping enzyme inhibitors (AID 588742). Particulars: Chlorocebus sabaeus. The format is functional.
A further test has as its target Beta-galactosidase (Escherichia coli, UniProt Q8VNN2). Briefly: detection-enzyme interference by beta-gal modulators – biochemical, E. coli enzyme, set 3, artefact control for CCR6 antagonist project, dose response (AID 504712). It counts as functional.
Test [3] has as its target T2, Sphingosine 1-phosphate receptor 4 (Homo sapiens, UniProt O95977).
T2 sequence (O95977 whole entry): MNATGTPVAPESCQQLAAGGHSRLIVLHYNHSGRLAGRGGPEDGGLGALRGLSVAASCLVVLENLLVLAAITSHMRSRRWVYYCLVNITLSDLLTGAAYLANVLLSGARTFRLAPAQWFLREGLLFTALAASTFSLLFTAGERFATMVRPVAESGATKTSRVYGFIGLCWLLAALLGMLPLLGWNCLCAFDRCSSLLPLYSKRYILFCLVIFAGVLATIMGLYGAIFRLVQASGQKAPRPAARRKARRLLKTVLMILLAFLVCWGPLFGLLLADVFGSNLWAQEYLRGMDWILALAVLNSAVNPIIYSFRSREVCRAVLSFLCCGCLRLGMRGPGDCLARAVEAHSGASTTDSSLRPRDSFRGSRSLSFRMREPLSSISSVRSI
The test is described as follows: Fluorescence dose response cell-based high throughput screening assay for antagonists of the Sphingosine 1-Phosphate Receptor 4 (S1P4). [Related pubchem assays: 1524 (Confirmation in triplicates.), 1510 (Primary screen.)]. It counts as functional.

The target in test [4] is T3, Rac GTPase-activating protein 1 (Homo sapiens, UniProt Q9H0H5).
T3 sequence (Q9H0H5 whole entry): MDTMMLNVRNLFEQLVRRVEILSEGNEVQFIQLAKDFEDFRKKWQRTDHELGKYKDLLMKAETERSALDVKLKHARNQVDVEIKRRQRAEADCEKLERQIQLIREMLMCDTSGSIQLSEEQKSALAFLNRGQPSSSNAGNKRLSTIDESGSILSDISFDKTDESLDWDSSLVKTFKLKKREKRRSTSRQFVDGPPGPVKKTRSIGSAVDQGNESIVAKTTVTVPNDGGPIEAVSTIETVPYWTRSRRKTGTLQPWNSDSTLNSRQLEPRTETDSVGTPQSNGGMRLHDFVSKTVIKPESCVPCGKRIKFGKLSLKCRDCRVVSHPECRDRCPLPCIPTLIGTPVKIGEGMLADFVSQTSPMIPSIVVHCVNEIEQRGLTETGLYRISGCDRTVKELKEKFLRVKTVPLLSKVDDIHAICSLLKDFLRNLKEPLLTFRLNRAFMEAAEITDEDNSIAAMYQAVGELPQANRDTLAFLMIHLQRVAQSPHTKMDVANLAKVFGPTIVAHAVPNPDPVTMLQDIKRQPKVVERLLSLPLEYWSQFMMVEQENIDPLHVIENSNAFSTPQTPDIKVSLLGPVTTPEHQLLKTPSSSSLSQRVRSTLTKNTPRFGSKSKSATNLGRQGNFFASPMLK
Briefly: blockers of MgcRacGAP-driven Rac1 GTP hydrolysis – biochemical, ADP Hunter fluorescence, primary and confirmatory, confirmation (AID 624330). The format is functional.

Test [5] is described as follows: MIN6 cell viability loss – mouse insulinoma, cytotoxicity control, dose response (AID 2122).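 Also: confirmatory high-throughput counterscreen run to flag cytotoxic compounds.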 It counts as functional.
In a further test the target is Nonstructural protein 1 (Influenza A virus, UniProt Q194T2). The format is functional, Influenza A virus (A/California/07/2009(H1N1)).
Test [6] can be described thus: decrease of insulin promoter-GFP reporter – imaging, high-content screening, mouse beta cells (AID 1628). The format is functional. Particulars: MIN6.
The target of test [7] is Induced myeloid leukemia cell differentiation protein Mcl-1 (Homo sapiens, UniProt Q07820). It counts as functional.
Chain of Induced myeloid leukemia cell differentiation protein Mcl-1 (Q07820 whole entry): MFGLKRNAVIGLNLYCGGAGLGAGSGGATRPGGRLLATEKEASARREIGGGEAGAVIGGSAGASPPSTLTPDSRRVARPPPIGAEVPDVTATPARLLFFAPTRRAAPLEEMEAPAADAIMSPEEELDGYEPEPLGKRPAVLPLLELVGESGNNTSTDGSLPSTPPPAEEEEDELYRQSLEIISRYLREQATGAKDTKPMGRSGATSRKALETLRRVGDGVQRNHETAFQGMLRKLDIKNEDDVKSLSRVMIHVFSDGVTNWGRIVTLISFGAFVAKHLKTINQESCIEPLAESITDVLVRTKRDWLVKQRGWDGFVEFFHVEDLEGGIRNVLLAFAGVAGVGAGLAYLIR

Chain of Beta-galactosidase (Q8VNN2 whole entry): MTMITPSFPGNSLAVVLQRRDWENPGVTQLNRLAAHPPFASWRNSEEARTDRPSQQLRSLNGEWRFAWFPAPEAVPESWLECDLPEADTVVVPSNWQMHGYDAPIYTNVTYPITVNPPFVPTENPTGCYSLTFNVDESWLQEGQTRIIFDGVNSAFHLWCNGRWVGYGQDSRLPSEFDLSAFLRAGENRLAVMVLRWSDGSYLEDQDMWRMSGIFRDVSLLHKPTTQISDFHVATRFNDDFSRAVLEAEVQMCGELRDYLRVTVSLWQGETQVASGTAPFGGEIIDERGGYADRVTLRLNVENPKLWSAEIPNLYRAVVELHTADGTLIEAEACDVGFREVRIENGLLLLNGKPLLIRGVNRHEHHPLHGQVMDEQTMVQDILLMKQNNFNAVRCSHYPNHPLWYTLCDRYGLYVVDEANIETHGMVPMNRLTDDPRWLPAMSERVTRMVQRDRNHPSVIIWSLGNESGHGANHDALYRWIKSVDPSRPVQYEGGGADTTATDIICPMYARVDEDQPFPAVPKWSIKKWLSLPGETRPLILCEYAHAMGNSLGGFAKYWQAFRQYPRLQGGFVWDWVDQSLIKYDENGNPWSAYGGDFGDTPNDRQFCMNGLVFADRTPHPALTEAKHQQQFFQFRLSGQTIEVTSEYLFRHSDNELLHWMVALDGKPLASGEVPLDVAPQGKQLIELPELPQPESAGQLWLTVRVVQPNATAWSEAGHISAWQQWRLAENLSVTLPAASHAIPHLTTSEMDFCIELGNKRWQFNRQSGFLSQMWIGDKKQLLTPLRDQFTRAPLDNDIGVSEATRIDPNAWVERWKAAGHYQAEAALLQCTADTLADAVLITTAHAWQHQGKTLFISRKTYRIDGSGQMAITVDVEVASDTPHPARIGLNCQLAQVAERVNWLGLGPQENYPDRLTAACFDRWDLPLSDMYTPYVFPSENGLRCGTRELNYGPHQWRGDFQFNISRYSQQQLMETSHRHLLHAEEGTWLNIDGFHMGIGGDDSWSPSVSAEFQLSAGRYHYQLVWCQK
Chain of Nonstructural protein 1 (Q194T2 whole entry): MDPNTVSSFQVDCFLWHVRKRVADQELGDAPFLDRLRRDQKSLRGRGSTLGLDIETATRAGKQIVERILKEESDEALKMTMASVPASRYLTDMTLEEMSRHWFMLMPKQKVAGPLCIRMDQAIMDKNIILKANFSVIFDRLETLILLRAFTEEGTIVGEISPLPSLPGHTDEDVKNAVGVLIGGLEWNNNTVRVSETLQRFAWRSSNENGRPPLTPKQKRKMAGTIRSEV

In the case of `O=C(/C=C/c1ccco1)Nc1ccc(Oc2ccccc2)cc1`, the EC50 in the test with BJ is > 150 µM (inconclusive).
Regarding `COc1ccc(S(=O)(=O)Nc2cc(SCC(=O)O)c(O)c3ccccc23)cc1`, the AC50 in test [1] was 126 µM (active); in test [2] it was 3.56 µM (active). Also, in the test on Vero, the cytotoxic concentration (CC50) was 20.6 µM (active).
For the compound `O=C1C(Nc2ccc(O)cc2)=C/C(=N/S(=O)(=O)c2cccs2)c2ccccc21`, the IC50 is > 66.6 µM (inactive) on Beta-galactosidase; 1.65 µM (active) in test [3]; 41.8 µM (active) in [4]; 0.702 µM (active) in [5]; 17.9 µM (active) at Nonstructural protein 1; 0.975 µM (active) in test [6].
Consider `CC1CC(=O)c2c(cc3c(-c4c(O)cc(O)c5c(O)c6c(cc45)OC(C)CC6=O)c(O)cc(O)c3c2O)O1` (stereo unspecified) [CEPHALOCHROMIN], for which, in [7], the 50% inhibitory concentration (IC50) was 1.49 µM (active).

The EC50 is the concentration at which the effect is half-maximal. For orientation: AC50 means the midpoint of the concentration-response curve, whichever way the signal moves. As a reminder, the CC50 is the concentration at which the toxic effect on the cells reaches its halfway point. As a reminder, the IC50 is the concentration that inhibits the measured activity by half.
